From patent US10195209B2, “Anti-huLRRC15 antibody drug conjugates and methods for their use” (AbbVie Inc., priority 2015, dated 2019) come the findings set out here.

Where only a bound is given, the exact number is not on record here.

The subject of data set [1] is U118MG (glioblastoma) xenograft tumors. Put plainly: U118MG glioblastoma xenograft model. In kind it is in vivo, SCID mice. How it is done:
For the experiments, ten million cells (U118MG) that were grown in vitro were inoculated subcutaneously per mouse into the right flank of female SCID mice. Tumors were size matched at˜100 mm^3, and dosed intraperitoneally (IP) Q6Dx2 (1 dose given every 6 days for a total of 2 doses) as shown in FIG. 14A. Measurements of the length (L) and width (W) of the tumors were taken via electronic caliper and the volume was calculated according to the following equation: V=L×W^2/2.
For the experiment, U118MG human glioblastoma cells were grown in vitro, and were inoculated subcutaneously (10 million cells per mouse) into the right flank of female SCID mice. Tumors were size matched at ˜150 mm^3, antibodies and immunoconjugates were administered IP Q4Dx6 (one dose give every 4 days for a total of 6 doses) at 10 or 6 mg/kg, respectively. At Day 165 post sizematch when tumors had regrown to ˜450 mm^3, animals were retreated with huM25-vcMMAE-DAR4 IP Q4Dx3 (one dose given every 4 days for a total of 3 doses) at 6 mg/kg.
Four preparations of huM25-vcMMAE that differed in their relative DAR profile (E2, E2/E4, E4 or DAR4) were tested for efficacy in U118MG tumors. […]
The potency of anti-huLRRC15 ADCs as compared to current standards of care was assessed in xenograft model U118MG (glioblastoma), and patient-derived xenograft models CTG-0241 osteosarcoma) and CTG-1095 (osteosarcoma). […]

Data set [2] has as its system CTG-1095 (human osteosarcoma) patient-derived xenograft. Nature of the data set: CTG-1095 patient-derived osteosarcoma xenograft model. In kind it is in vivo, NSG mice. An excerpt: Female NSG mice were implanted unilaterally on the left flank region with CTG-1095 tumor fragments harvested from host animals, each implanted from a specific passage lot. When tumors reached approximately 250-350 mm^3, animals were matched by tumor volume into treatment and control groups and dosing initiated (Day 0).
In FIG. 18C, female NSG mice were implanted unilaterally on the left flank region with CTG-1095 tumor fragments harvested from host animals, each implanted from a specific passage lot. When tumors reached approximately 150-300 mm^3, animals were matched by tumor volume into treatment and control groups and dosing initiated (Day 0). Dosing with isotype mAb or ADCs was performed IP at 12 mg/kg Q4Dx6 (one dose given every 4 days for a total of 6 doses), while cisplatin was dosed intraperitoneally Q7Dx2 (once every 7 days for a total of 2 doses) at 7.5 mg/kg.
(§1) In FIG. 18D, female NSG mice were implanted unilaterally on the left flank region with CTG-1095 tumor fragments harvested from host animals, each implanted from a specific passage lot. When tumors reached approximately 200 mm^3, animals were matched by tumor volume into treatment and control groups and dosing initiated (Day 0). Dosing with isotype mAb or ADCs was performed IP at 6 mg/kg on a Q4Dx6 (one dose given every 4 days for a total of 6 doses), while gemcitabine was dosed IP Q3Dx4 (every 3 days for a total of 4 doses) at 80 mg/kg.
(In general: Xenograft models place foreign cells or tissue in a host animal.)

Data set [3] has as its system CTG-0241 (human osteosarcoma) patient-derived xenograft. Put plainly: CTG-0241 patient-derived osteosarcoma xenograft model. It counts as in vivo, nu/nu mice.
Description: Female nu/nu mice were implanted unilaterally on the left flank region with CTG-0241 tumor fragments harvested from host animals, each implanted from a specific passage lot. When tumors reached approximately 250-350 mm^3, animals were matched by tumor volume into treatment and control groups and dosing initiated (Day 0).
as §1, with “18B,” for “18D,”, “nu/nu” for “NSG”, “CTG-0241” for “CTG-1095”, “250-350” for “200”, “while cisplatin was dosed IP Q7Dx3 (once every 7 days for a total of 3 doses) at 7.5 mg/kg, doxorubicin was dosed intravenously (IV) once daily at 1 mg/kg for 5 days,” for “while”, “80 mg/kg, and ifosfamide was dosed IP QDx3 (one dose given every day for a total of 3 doses) at 120” for “80”

In data set [4] the test system is G292 clone A141B1 (osteosarcoma) cells. Put plainly: In vitro cell killing assay (Cell TiterGlo), G292 clone A141B1. In kind it is cell-based, human. The settings on record: G292 clone A141B1, 4 days. How it is done: (§2) In the in vitro cell killing assays, cells are seeded at 500-3000 cells per well into 96-well plates with varying concentrations ([…]) of antibodies and ADCs. The cells are incubated for 4 days in culture and then the percent cell viability relative to untreated cells is determined using Cell TiterGlo™ which measures ATP content within the treated cells.

Data set [5] relates to RPMI-7951 (melanoma) cells. Nature of the data set: In vitro cell killing assay (Cell TiterGlo), RPMI-7951. In kind it is cell-based, human. The settings on record: RPMI-7951, 4 days. The protocol: as §2
On the technique in general: In ATP-based viability assays light output follows the ATP content of the culture.

Data set [6] concerns U118MG (glioblastoma) cells. Put plainly: In vitro cell killing assay (Cell TiterGlo), U118MG. In kind it is cell-based, human. The following applies: 4 days, percent cell viability by Cell TiterGlo. The protocol:
as §2
Preparation of the huM25-PBD-DAR2 ADC was accomplished according to the procedure described in Example 8.
FIG. 13E depicts the potent in vitro 4-day cell killing ability of anti-huLRRC15 ADC huM25-PBD-DAR2 as compared with the isotype control PBD DAR2 ADC in U118MG (glioblastoma) cells.

Data set [7] relates to EBC-1 (squamous NSCLC) cells. Put plainly: In vitro cell killing assay (Cell TiterGlo), huLRRC15-negative EBC-1. In kind it is cell-based, human. The following applies: huLRRC15-negative EBC-1, 4 days. The protocol:
as §2

Data set [8] can be described thus: Rat tolerability experiment. It counts as in vivo, Sprague Dawley wild type rats. The settings on record: single IV dose at MMAE equivalent levels, FIG. 16A. The protocol: The safety profiles of E2, E4 and E2/E4 preparations of huM25-vcMMAE ADCs were assessed in a rat tolerability experiment (FIGS. 16A, 16B). For the assay, Sprague Dawley wild type rats were dosed with a single IV dose at MMAE equivalent levels of each antibody drug conjugate. […] Double the protein antibody dose was delivered with equal amounts of MMAE, and improved survival for E2 was seen over E4. Fewer deaths occurred in the animals dosed with E2 than E4 ADCs, and the deaths that did occur happened later on Day 8. Broad drug distribution DAR4 has an MTD of 20 mg/kg.

The subject of data set [9] is human BM-MSC (Lonza) mesenchymal stem cells. Nature of the data set: In vitro cell killing, human BM-MSC treated with TGFβ. In kind it is cell-based. The following applies: 10 ng/mL TGFβ, same doses.
Setting [10] is: gemcitabine alone, 80 mg/kg IP Q3Dx4, FIG. 18D.
Where [11] appears, read: ADC alone, 6 mg/kg IP Q4Dx6, FIG. 18D.

With `Cn1nnc2c(C(N)=O)ncn2c1=O` [temozolomide, reference compound], the TGImax in data set [1] (20 mg/kg orally daily for first 5 days of a 7-day cycle, two cycles, FIG. 18A) is on record as 67%.

In [2] (setting [10]), `Nc1ccn([C@@H]2O[C@H](CO)[C@@H](O)C2(F)F)c(=O)n1` [gemcitabine, reference compound] returned a TGD of 241% and a TGImax of 84%. In data set [3] (80 mg/kg IP Q3Dx4, FIG. 18B), the TGImax amounted to 64%.

`O=P1(NCCCl)OCCCN1CCCl` (stereo not shown) [ifosfamide] returned a TGImax in data set [3] (120 mg/kg IP QDx3, FIG. 18B) of 10%.

Regarding `N.N.[Cl][Pt][Cl]` [cisplatin, reference compound], the TGImax came to 70% in data set [2] (7.5 mg/kg IP Q7Dx2, FIG. 18C) and 44% in data set [3] (7.5 mg/kg IP Q7Dx3, FIG. 18B).

In the case of `COc1cccc2c1C(=O)c1c(O)c3c(c(O)c1C2=O)C[C@@](O)(C(=O)CO)C[C@@H]3O[C@H]1C[C@H](N)[C@H](O)[C@H](C)O1` [doxorubicin], in [3] (1 mg/kg IV once daily for 5 days, FIG. 18B), the TGImax was determined as 27%.

Take “huM25-vcMMAE-E2: huM25-vcMMAE ADC preparation enriched in DAR2 by hydrophobic interaction chromatography”: the “in vitro cell killing compared with isotype ADC” value in data set [4], in data set [5] and in [6] was “superior to that seen with non-targeting isotype-vcMMAE ADCs” throughout. In data set [7], the “in vitro cell killing” value is reported as “minimal cancer cell killing”. The “death, percentage of animals” value in data set [8] was 25%. Also, the “maximum tumor growth inhibition (TGImax)” value in data set [1] (MMAE-equivalent doses IP every seven days for three doses, FIG. 17) was ≥ 84%. Further, the TGImax came out at 87% in [2] (12 mg/kg IP Q4Dx6, FIG. 14C/18C); 75% in [2] (setting [11]); 91% in [3] (6 mg/kg IP Q4Dx6, FIG. 14B/18B). For the same molecule, the TGD in data set [2] (setting [11]) is reported as 193%.

B1: huAD208.4.1-PBD-DAR2: anti-LRRC15 PBD ADC of huAD208.4.1, cross-reactive to human and mouse LRRC15 (conjugate)
VH: EVQLVQSGAEVKKPGSSVKVSCKASGFTFTDYYIHWVKQAPGQGLEWIGLVYPYIGGTNYNQKFKGKATLTVDTSTTTAYMEMSSLRSEDTAVYYCARGDNKYDAMDYWGQGTTVTVSS
VL: DIVLTQSPDSLAVSLGERATINCRASQSVSTSSYSYMHWYQQKPGQPPKLLIKYASSLESGVPDRFSGSGSGTDFTLTISSLQAEDVAVYYCEQSWEIRTFGGGTKVEIK
Take B1: the “in vitro cell killing effect compared with isotype-PBD-DAR2” value in data set [9] is “higher cell killing effect than isotype-PBD-DAR2”.
